Tested on: SD rats
Test: Mineral balance test in rats (absorption rate, internal retention rate, serum concentration)
Type: in vivo, rat
Details: oral aqueous solution 2.0 g/day; for Absorption rate of calcium / Absorption rate of iron / Absorption rate of magnesium / Absorption rate of zinc / Internal retention rate of calcium / Internal retention rate of iron / Internal retention rate of magnesium / Internal retention rate of zinc: 14 days, then urine and feces collected for 4 days
Text: SD rats (males) of 4 weeks of age after birth were preliminarily reared for 1 week and then divided into a control group and 6 sample ingestion groups, each group consisting of 6 animals, at random based on body weight. In the rats of salacinol administration group, 0.1% salacinol aqueous solution was orally administered at a dose of 2.0 g/day per unit weight of rat. In the rats of voglibose administration group, 0.4% voglibose aqueous solution was orally administered at a dose of 2.0 g/day per unit weight of rat. In the rats of acarbose administration group, 0.4% acarbose aqueous solution was orally administered at a dose of 2.0 g/day per unit weight of rat. In the rats of Salacia extract powder administration group, 1% Salacia extract powder aqueous solution was orally administered at a dose of 2.0 g/day per unit weight of rat. In the rats of mulberry extract powder administration group, 1% mulberry extract powder aqueous solution was orally administered at a dose of 2.0 g/day per unit weight of rat. In the rats of Salacia extract powder+green tea extract administration group, 1% Salacia extract powder+1% green tea extract mixed aqueous solution was orally administered at a dose of 2.0 g/day per unit weight of rat. In the rats of control group, water was orally administered at a dose of 2.0 g/day per unit weight of rat. Each rat was reared with a solid feed (CRF-1 mfd. by Oriental Yeast) for 14 days and then transferred into a cage for metabolism analysis, and urine and feces were collected for a period of 4 days to measure concentrations of iron, calcium, magnesium and zinc. Detection of minerals from feces was carried out using inductively coupled plasma emission spectrometry, and those from urine and serum using atomic absorption method. Absorption rate and internal holding rate of each mineral were calculated using the following formulae. Absorbed amount=ingested amount−discharged amount into feces Absorption rate (%)=absorbed amount÷ingested amount×100 Internally retained amount=absorbed amount−discharged amount into urine Internal retention rate (%)=internally retained amount÷ingested amount×100 Results of the absorption rate and internal retention rate of minerals and concentration of mineral in serum by the mineral balance test are respectively shown in Tables 3 to 5.

| Compound | Absorption rate of calcium [%] | Absorption rate of iron [%] | Absorption rate of magnesium [%] | Absorption rate of zinc [%] | Internal retention rate of calcium [%] | Internal retention rate of iron [%] | Internal retention rate of magnesium [%] | Internal retention rate of zinc [%] | Concentration of calcium in serum [mg/dL] | Concentration of iron in serum [µg/dL] | Concentration of magnesium in serum [mg/dL] | Concentration of zinc in serum [µg/dL] |
| --- | --- | --- | --- | --- | --- | --- | --- | --- | --- | --- | --- | --- |
| C[C@H]1O[C@H](O[C@H]2[C@H](O)[C@@H](O)[C@@H](O[C@H]3[C@H](O)[C@@H](O)C(O)O[C@@H]3CO)O[C@@H]2CO)[C@H](O)[C@@H](O)[C@@H]1N[C@H]1C=C(CO)[C@@H](O)[C@H](O)[C@H]1O (stereo partly drawn) [Acarbose, acarbose] | 32.8 | 37.5 | 20.8 | 29.3 | 31.5 | 32.8 | 23.1 | 18.4 | 10.9 | 289.3 | 2.01 | 121.3 |
| O=S(=O)([O-])O[C@@H](CO)[C@H](O)C[S@+]1C[C@@H](O)[C@H](O)[C@H]1CO [Salacinol] | 33.2 | 38.5 | 20.5 | 30.1 | 32.3 | 34.2 | 23.6 | 19.5 | 11.8 | 298.6 | 2.06 | 122.7 |
| OCC(CO)N[C@H]1C[C@](O)(CO)[C@@H](O)[C@H](O)[C@H]1O [Voglibose, voglibose] | 32.5 | 37.8 | 21.2 | 29.8 | 32.1 | 33.9 | 24.0 | 18.6 | 10.9 | 292.5 | 2.04 | 120.2 |

From patent US20110052732A1, “MINERAL ABSORPTION ACCELERATOR AND IRON DEFICIENCY ANEMIA IMPROVER OF FOOD COMPOSITION” (FUJIFILM Corporation, priority 2008, published 2011)
